Laboratory results from patent publication US9937235B2, “Lipidated peptides as anti-obesity agents” (USTAV ORGANICKE CHEMIE A BIOCHEMIE AKADEMIE VED CR, V.V.I, priority 2012, dated 2018).
Where a SMILES comes first, the peptide text is derived from it. The star is where a group is joined. Myristoyl = CCCCCCCCCCCCCC(=O)*

Assays:
fasted C57BL/6 mice = experiment: Food intake in fasted mice after SC administration; type: in vivo, mouse; conditions: fasted C57BL/6 mice, 5 mg/kg SC, 45 min
How it was run: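 Male C57BL/6 mice, food-deprived 17 h, received saline, PrRP or lipidated analogs either SC at 1-10 mg/kg or ICV into the third ventricle at 4 nmol/mouse.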

Rhesus monkey = type: in vivo; conditions: single SC 1.0 mg/kg or 2.0 mg/kg, overnight fasted, between 1-6 hours, vs saline
Experimental: Food intake (amount of pellets consumed) was measured in Rhesus monkey (n=4) after a single subcutaneous administration of myristoylated human PrRP20 (analog no. 55).
The study was conducted on overnight fasted animals in Meditox breeding facility (Konárovice, Czech Republic). Each animal received a subcutaneous injection of saline, or of analog 55 in a dose of 1.0 mg/kg or 2.0 mg/kg. Test item formulation was prepared in saline solution as a fresh solution, just before dosing. […] Food intake monitoring was performed 2, 4, 8 and 24 hours after single administration. […] While preferred embodiments of the present invention have been shown and described herein, it will be obvious to those skilled in the art that such embodiments are provided by way of example only. Numerous variations, changes, and substitutions will now occur to those skilled in the art without departing from the invention. It should be understood that various alternatives to the embodiments of the invention described herein may be employed in practicing the invention. It is intended that the following claims define the scope of the invention and that methods and structures within the scope of these claims and their equivalents be covered thereby.

For CCCCCCCCCCCCCC(=O)N[C@H](C(=O)N1CCC[C@H]1C(=O)N[C@@H](CC(=O)O)C(=O)N[C@H](C(=O)N[C@@H](CC(N)=O)C(=O)N1CCC[C@H]1C(=O)N[C@@H](C)C(=O)N[C@@H](Cc1c[nH]c2ccccc12)C(=O)N[C@@H](Cc1ccc(O)cc1)C(=O)N[C@@H](C)C(=O)N[C@@H](CO)C(=O)N[C@@H](CCCNC(=N)N)C(=O)NCC(=O)N[C@H](C(=O)N[C@@H](CCCNC(=N)N)C(=O)N1CCC[C@H]1C(=O)N[C@H](C(=O)NCC(=O)N[C@@H](CCCNC(=N)N)C(=O)N[C@@H](Cc1ccccc1)C(N)=O)C(C)C)[C@@H](C)CC)[C@@H](C)CC)[C@@H](C)O [Analog 55] (Myristoyl-TPDINPAWYASRGIRPVGRF-NH2), the “Food intake in mice (5 mg/kg SC) % saline-treated group (45 min)” value (fasted C57BL/6 mice) was 10% and the “Food intake (amount of pellets consumed)” value (Rhesus monkey) was “Significantly lower food intake”.
